Test results published in patent publication US20190142832A1, “Marker for Cancer Prognosis and Methods Related Thereto” (National Jewish Health, priority 2007, published 2019).
Like-named read-outs stand apart in the source and are kept apart here.

How the values were obtained:
PI 3-kinase = PI 3-kinase activity in anti-p85 immunoprecipitate and phospho-Akt Western blot, HLMVEC; type: cell-based, human; conditions: 1 μM
Protocol: HLMVECs were cultured on 100 mm dishes. Cells were serum starved for 24 h before treating with 1 μM of CGS-21680 (Adenosine A2A receptor agonist) or the diluent control. Following treatment, lysates were prepared and −500 μg of protein was incubated with 20 μl of anti-p85-conjugated agarose (200 μg anti p85/200 μl agarose) for 2 h, after which the complex was precipitated. PI3-kinase activity was measured in the immunoprecipitate.

MB114 cells = test: Tube formation of MB114 cells on collagen gel; type: cell-based, murine; conditions: 5 days
Protocol: MB114 cells (a microvascular endothelial cell line) were plated on collagen gel in presence of absence of the A2A receptor agonist CGS-21680 at a density of 80000 cells/well using a 24 well plate. After incubation for 5 days, photos from each well were taken randomly.

HLMVEC [1] = test: Matrigel tube formation (branching) assay in HLMVEC; type: cell-based, human
Protocol: Angiogenesis in HLMVEC was assessed using the Matrigel tube formation assay. Growth factor-reduced Matrigel matrix was coated onto 12-well plates and allowed to solidify at 37° C. for 30 min. HLMVEC's were then trypsinized and plated onto the Matrigel in the absence of growth factors or serum and incubated at 37° C. in a CO2 incubator. The A2A receptor agonist, CGS-21680, or the diluent control was included both in the Matrigel matrix and the overlying medium. Four hours after plating of cells, three randomly chosen fields from each well were photographed. Branch points were counted and plotted.

HLMVEC [2] = test: [3H]-thymidine incorporation proliferation assay in HLMVEC; type: cell-based, human; conditions: serum-starved, varying concentrations, 24 h
Protocol: Proliferation of HLMVEC was measured using [^3H]-thymidine incorporation. About 20,000 cells were plated in each well of a 24-well plate in endothelial cell complete medium. After 24 h, cells were washed once with HBSS and serum-starved in EBM-2 medium containing 1% FBS, hydrocortisone, ascorbic acid and GA-1000. After 24 h, cells were incubated with [^3H] thymidine (1 μCi/well) in the presence or absence of the adenosine A2A receptor agonist, CGS-21680, at varying concentrations for an additional 24 h. Subsequently, cells were washed twice with ice-cold PBS, precipitated with 0.1 N perchloric acid, and solubilized with 0.01 N NaOH containing 0.1% SDS prior to scintillation counting. Similarly, proliferation was also measured in cells transduced with Ad.A2A or Ad.LacZ at a multiplicity of infection of 10 pfu/cell.

[3] = tested on: adenosine A2A receptor mRNA; test: Northern blot of adenosine A2A receptor mRNA in human endothelial cells (HLMVEC, HCAEC); type: cell-based
Protocol: To assess the role of adenosine receptors in hypoxia, primary HLMVEC were exposed to air or hypoxia. For detecting mRNA, twenty-four hours post-transduction or treatment, cells were washed twice with Hank's balanced salt solution (HBSS) and harvested in GITC. RNA was purified using the CsCl method as described earlier (Riddle et al., Am J Physiol Lung Cell Mol Physiol 278, L407 (2000). 15 μg total RNA were resolved on 1% formaldehyde-agarose gels and transferred to nylon membranes. Probes used for northern blot were derived from human A2A cDNA and human A2B cDNA kindly provided by Dr. Marlene Jacobson, Merck Research Labs, West Point, Pa. The VEGF cDNA was obtained from the Harvard Proteomic Institute. The cDNA probes were labeled with [^32P]α-dCTP (ICN, Irvine, Calif.) by random priming and hybridized with the membrane for 18 hrs at 42° C. Membranes were then washed and autoradiographed. For loading controls, membranes were stripped of radioactive probe in a 2% glyceraldehyde solution at 80° C. and rehybridized with an end-labeled 28S rRNA oligonucleotide (Ambion, Austin, Tex.). The intensity of the radiolabeled bands was measured using a PhosphorImager running ImageQuant software (Molecular Dynamics, Sunnyvale, Calif.). The same Northern Blot procedure was used in subsequent examples, unless specifically noted otherwise. Protein expression was detected using standard Western Blot methods described in Ahmad, Free Radic Biol Med. 40(7):1108(2006).

A2A receptor mRNA = A2A receptor mRNA expression in mouse derived endothelial cells SVEC and MB114; type: cell-based
Protocol: Primary human lung microvascular endothelial cells (HLMVEC), primary human coronary artery endothelial cells (HCAEC), primary pulmonary artery endothelial cells (HPAEC) and endothelial cell growth medium were obtained from Cambrex (Walkersville, Md.). Dimethyloxlylglycine (DMOG) was obtained from Frontier Scientific, Inc (Logan, Utah). HLMVEC and HCAEC were cultured in endothelial cell basal medium (EBM-2) supplemented with VEGF, human FGF, human EGF, hydrocortisone, ascorbic acid, insulin-like growth factor-1, GA-1000 (gentamycin/amphotericin-B), 5% fetal bovine serum as per the supplier's protocol. Murine brain microvascular endothelial cells (MB114) and SV-40 transformed mouse endothelial cells (SVEC) were cultured in DMEM supplemented with 10% FBS, penicillin and streptomycin. The same culture conditions were used in subsequent examples, unless specifically noted otherwise.
To assess the role of adenosine receptors in hypoxia, primary HLMVEC were exposed to air or hypoxia. […] The intensity of the radiolabeled bands was measured using a PhosphorImager running ImageQuant software (Molecular Dynamics, Sunnyvale, Calif.). […] Protein expression was detected using standard Western Blot methods described in Ahmad, Free Radic Biol Med. 40(7):1108(2006).

[4] = HLMVEC (donors) and HCAEC, Northern blot

## CCNC(=O)[C@H]1O[C@@H](n2cnc3c(N)nc(NCCc4ccc(CCC(=O)O)cc4)nc32)[C@H](O)[C@@H]1O [CGS-21680]
PI 3-kinase
  expression of phosphorylated Akt (Western blot): increases expression of phosphorylated Akt
PI 3-kinase; serum starved 24 h
  PI3-kinase activity (phosphorylation of phosphoinositides, PIP3): increased PI3-kinase activity
MB114 cells
  tube formation: promotes tube formation in a dose dependent manner
HLMVEC [1]; Matrigel, 4 h
  cell sprouting / formation of branches relative to control cells: increased cell sprouting resulting in formation of branches
HLMVEC [1]; Matrigel-matrix based assay, branch points 4 h after plating
  increase in branching compared to the diluent control: 37%
HLMVEC [2]
  cellular proliferation as assessed by 3[H]thymidine incorporation: increased cellular proliferation in a dose-dependent manner

## [Cl-].[Cl-].[Co+2] [CoCl2]
[3]
  adenosine A2A receptor steady-state mRNA levels: increases adenosine A2A receptor steady-state mRNA levels

## CC(=O)N(O)CCCCCNC(=O)CCC(=O)N(O)CCCCCNC(=O)CCC(=O)N(O)CCCCCN [DFO]
[3]; [4]
  adenosine A2A receptor steady-state mRNA levels: increases adenosine A2A receptor steady-state mRNA levels

## COC(=O)CNC(=O)C(=O)OC [DMOG, Dimethyloxlylglycine]
A2A receptor mRNA
  expression of A2A receptor mRNA levels: neither hypoxia nor HIF stabilization by DMOG altered the expression of A2A receptor mRNA levels
[3]; [4]
  adenosine A2A receptor steady-state mRNA levels: increases adenosine A2A receptor steady-state mRNA levels
